The values that follow come from patent US7598382B2, “Aryl substituted imidazoquinolines” (Coley Pharmaceutical Group, Inc., priority 2002, dated 2009).

SMILES strings stand for the structures. Structures can show the parent of a compound that is named as a salt. Bounds are passed on as bounds.

In general, melting point refers to the temperature of the solid-liquid transition. Consider `CCOCc1nc2c(N)nc3cc(-c4cccc(C(=O)NCC(C)C)c4)ccc3c2n1CCCOC` [Example 171, 3-[4-Amino-2-ethoxymethyl-1-(3-methoxypropyl)-1H-imidazo[4,5-c]quinolin-7-yl]-N-(2-methylpropyl)benzamide], for which the melting point was 209 to 210 °C.

For `CCOCc1nc2c(N)nc3cc(-c4cccnc4)ccc3c2n1CC(C)(C)O` [Example 126, 1-[4-Amino-2-ethoxymethyl-7-(pyridin-3-yl)-1H-imidazo[4,5-c]quinolin-1-yl]-2-methylpropan-2-ol], the melting point lay within 197 to 199 °C.

In the case of `CCCc1nc2c(N)nc3cc(/C=C/c4cccc(S(N)(=O)=O)c4)ccc3c2n1CC(C)C` [Example 440, (E)-3-{2-[4-Amino-1-(2-methylpropyl)-2-propyl-1H-imidazo[4,5-c]quinolin-7-yl]vinyl}benzenesulfonamide], the melting point was above 250 °C.

In the case of `CCOCc1nc2c(N)nc3cc(-c4cccc(C(=O)N5CCOCC5)c4)ccc3c2n1CC1CCOCC1` (hydrate or solvate) [Example 477, {3-[4-Amino-2-ethoxymethyl-1-(tetrahydropyran-4-ylmethyl)-1H-imidazo[4,5-c]quinolin-7-yl]phenyl}morpholin-4-ylmethanone], the melting point was 125 to 128 °C.

As to `CCOCc1nc2c(N)nc3cc(-c4cncc(CO)c4)ccc3c2n1CCCOC` [Example 167, 2-Ethoxymethyl-1-(3-methoxypropyl)-7-(5-hydroxymethylpyridin-3-yl)-1H-imidazo[4,5-c]quinolin-4-amine], the melting point is 198 to 199 °C.

Regarding `CC(C)Cn1cnc2c(N)nc3ccc(-c4ccc(C(C)(C)C)cc4)cc3c21` [Example 11, 8-(4-tert-Butylphenyl)-1-isobutyl-1H-imidazo[4,5-c]quinolin-4-amine], the melting point was above 250 °C.

Turning to `CCOCc1nc2c(N)nc3cc(-c4ccccc4)ccc3c2n1CCCOC` [Example 163, 2-Ethoxymethyl-1-(3-methoxypropyl)-7-phenyl-1H-imidazo[4,5-c]quinolin-4-amine], the melting point is 146 to 147 °C.

`CCOCc1nc2c(N)nc3cc(-c4cccnc4)ccc3c2n1CC1CCNCC1` (as salt: hydrochloride) [Example 177, 2-Ethoxymethyl-1-(piperidin-4-ylmethyl)-7-(pyridin-3-yl)-1H-imidazo[4,5-c]quinolin-4-amine trihydrochloride] yielded a melting point above 250 °C.

Regarding `COc1ccc(Cc2nc3c(N)nc4cc(-c5ccccc5)ccc4c3n2CCOc2ccccc2)cc1` [Example 198, 2-(4-Methoxybenzyl)-1-(2-phenoxyethyl)-7-phenyl-1H-imidazo[4,5-c]quinolin-4-amine], the melting point was in the range of 197 to 198 °C.

`CC(C)Cn1cnc2c(N)nc3cc(C=Cc4ccccc4)ccc3c21` [Example 427, 1-(2-Methylpropyl)-7-styryl-1H-imidazo[4,5-c]quinolin-4-amine]: the melting point is 257 to 258 °C.

As to `CC(C)Cn1cnc2c(N)nc3ccc(CCc4ccccc4)cc3c21` [Example 123, 1-(2-Methylpropyl)-8-phenethyl-1H-imidazo[4,5-c]quinolin-4-amine], the melting point is 175 to 178 °C.

`CC(C)Cn1cnc2c(N)nc3cc(-c4cccnc4)ccc3c21` [Example 428, 1-(2-Methylpropyl)-7-(pyridin-3-yl)-1H-imidazo[4,5-c]quinolin-4-amine] gave a melting point of 125 °C.

Consider `Cc1ccc(-c2ccc3nc(N)c4ncn(CC(C)C)c4c3c2)cc1C` [Example 119, 8-(3,4-Dimethylphenyl)-1-(2-methylpropyl)-1H-imidazo[4,5-c]quinolin-4-amine], for which the melting point was 204 to 205 °C.

Turning to `CCOCc1nc2c(N)nc3cc(-c4cccnc4)ccc3c2n1CC1CCCCC1` [Example 438, 1-Cyclohexylmethyl-2-ethoxymethyl-7-(pyridin-3-yl)-1H-imidazo[4,5-c]quinolin-4-amine], the melting point was in the range of 146 to 148 °C.

Take `CCc1ccc(-c2ccc3nc(N)c4ncn(CC(C)C)c4c3c2)cc1` [Example 118, 8-(4-Ethylphenyl)-1-(2-methylpropyl)-1H-imidazo[4,5-c]quinolin-4-amine]: the melting point lay within 238 to 240 °C.

In turn, `CCOc1ccccc1-c1ccc2c(c1)nc(N)c1nc(COC)n(CC(C)(C)O)c12` [Example 394, 1-[4-Amino-7-(2-ethoxyphenyl)-2-methoxymethyl-1H-imidazo[4,5-c]quinolin-1-yl]-2-methylpropan-2-ol] showed a melting point of 173 to 175 °C.

`CCCc1nc2c(N)nc3cc(/C=C/c4cccnc4)ccc3c2n1CC(C)C` (hydrate or solvate) [Example 446, (E)-1-(2-Methylpropyl)-2-propyl-7-[2-(pyridin-3-yl)vinyl]-1H-imidazo[4,5-c]quinolin-4-amine] registered a melting point of 190 to 192 °C.

Compound `CCCc1nc2c(N)nc3cc(-c4cccnc4)ccc3c2n1CC1CCN(S(C)(=O)=O)CC1` (as salt: HCl) (hydrate or solvate) [Example 411, 1-{[1-(Methanesulfonyl)piperidin-4-yl]methyl}-2-propyl-7-(pyridin-3-yl)-1H-imidazo[4,5-c]quinolin-4-amine] displayed a melting point above 250 °C.

Consider `CCCC(=O)NCCCCn1c(CCC)nc2c(N)nc3cc(-c4cccnc4)ccc3c21` (hydrate or solvate) [Example 380, N-{4-[4-Amino-2-propyl-7-(pyridin-3-yl)-1H-imidazo[4,5-c]quinolin-1-yl]butyl}butyramide], for which the melting point lay in the range of 144 to 146 °C.

In the case of `CCOCc1nc2c(N)nc3cc(-c4cccnc4)ccc3c2n1CCN1CCN(S(C)(=O)=O)CC1` (hydrate or solvate) [Example 415, 2-Ethoxymethyl-1-{2-[4-(methanesulfonyl)piperazin-1-yl]ethyl}-7-(pyridin-3-yl)-1H-imidazo[4,5-c]quinolin-4-amine], the melting point lay within 205 to 207 °C.

For `CC(C)Cn1cnc2c(N)nc3ccc(CCc4ccncc4)cc3c21` [Example 425, 1-(2-Methylpropyl)-8-(2-pyridin-4-ylethyl)-1H-imidazo[4,5-c]quinolin-4-amine], the melting point lay within 221 to 224 °C.

For the compound `CCc1nc2c(N)nc3ccc(-c4cccnc4)cc3c2n1CC(C)C` [Example 17, 2-Ethyl-1-isobutyl-8-(pyridin-3-yl)-1H-imidazo[4,5-c]quinolin-4-amine], the melting point is above 250 °C.

In the case of `COCc1nc2c(N)nc3cc(-c4cnc(OC)nc4)ccc3c2n1CC(C)(C)O` [Example 397, 1-[4-Amino-2-methoxymethyl-7-(2-methoxypyrimidin-5-yl)-1H-imidazo[4,5-c]quinolin-1-yl]-2-methylpropan-2-ol], the melting point was 241 to 242 °C.

Take `CCOCc1nc2c(N)nc3cc(-c4cccnc4)ccc3c2n1CCCCNC(=O)OC(C)(C)C` [Example 157, tert-Butyl {4-[4-amino-2-ethoxymethyl-7-(pyridin-3-yl)-1H-imidazo[4,5-c]quinolin-1-yl]butyl}carbamate]: the melting point lay in the range of 117 to 119 °C.

The compound `CCc1nc2c(N)nc3cc(-c4cccnc4)ccc3c2n1CC(C)(C)O` [Example 142, 1-[4-Amino-2-ethyl-7-(pyridin-3-yl)-1H-imidazo[4,5-c]quinolin-1-yl]-2-methylpropan-2-ol] registered a melting point of 245 to 247 °C.

In the case of `CCCCc1nc2c(N)nc3cc(-c4cccnc4)ccc3c2n1CCNC(=O)NC(C)C` [Example 392, N-{2-[4-Amino-2-butyl-7-(pyridin-3-yl)-1H-imidazo[4,5-c]quinolin-1-yl]ethyl}-N′-(1-methylethyl)urea], the melting point was 240 to 241 °C.

For `CCOCc1nc2c(N)nc3cc(-c4cccnc4)ccc3c2n1CC1COC(C)(C)O1` (centres unmarked) [Example 159, 1-[(2,2-Dimethyl-1,3-dioxolan-4-yl)methyl]-2-ethoxymethyl-7-(pyridin-3-yl)-1H-imidazo[4,5-c]quinolin-4-amine], the melting point lay within 181 to 182 °C.

In turn, `CCc1nc2c(N)nc3cc(-c4cccnc4)ccc3c2n1CC1CCN(C(=O)NC(C)C)CC1` (hydrate or solvate) [Example 408, 4-[4-Amino-2-ethyl-7-(pyridin-3-yl)-1H-imidazo[4,5-c]quinolin-1-ylmethyl]piperidin-1-carboxylic acid isopropylamide] gave a melting point of 255 to 256 °C.

Consider `CCCc1nc2c(N)nc3cc(/C=C/c4ccc(C)s4)ccc3c2n1CC(C)C` [Example 442, (E)-1-(2-Methylpropyl)-7-[2-(5-methylthiophen-2-yl)vinyl]-2-propyl-1H-imidazo[4,5-c]quinolin-4-amine], for which the melting point lay in the range of 182 to 185 °C.

In turn, `CCOCc1nc2c(N)nc3cc(-c4ccccc4)ccc3c2n1CC1CCN(C(=O)N2CCOCC2)CC1` [Example 195, 2-Ethoxymethyl-1-{[1-(morpholin-4-ylcarbonyl)piperidin-4-yl]methyl}-7-phenyl-1H-imidazo[4,5-c]quinolin-4-amine] displayed a melting point of 208 to 209 °C.

`CCCc1nc2c(N)nc3cc(-c4cccnc4)ccc3c2n1CCCCNC(=O)C1CCCC1` (hydrate or solvate) [Example 382, N-{4-[4-Amino-2-propyl-7-(pyridin-3-yl)-1H-imidazo[4,5-c]quinolin-1-yl]butyl}cyclopentanecarboxamide]: the melting point lay in the range of 180 to 182 °C.

In turn, `COCCc1nc2c(N)nc3cc(-c4cccc(CO)c4)ccc3c2n1CCCN1CCCC1=O` (hydrate or solvate) [Example 185, 1-{3-[4-Amino-7-(3-hydroxymethylphenyl)-2-(2-methoxyethyl)-1H-imidazo[4,5-c]quinolin-1-yl]propyl}pyrrolidin-2-one] came in with a melting point of 184 to 187 °C.

Regarding `Nc1nc2cc(-c3ccccc3)ccc2c2c1ncn2CCCN1CCCC1=O` [Example 204, 1-[3-(4-Amino-7-phenyl-1H-imidazo[4,5-c]quinolin-1-yl)propyl]pyrrolidin-2-one], the melting point is 201 to 204 °C.

Turning to `CCCc1nc2c(N)nc3cc(/C=C/c4ccc(OC)cc4)ccc3c2n1CC(C)C` [Example 444, (E)-7-[2-(4-Methoxyphenyl)vinyl]-1-(2-methylpropyl)-2-propyl-1H-imidazo[4,5-c]quinolin-4-amine], the melting point lay within 201 to 202 °C.

In turn, `CC(C)(O)Cn1cnc2c(N)nc3ccc(Cc4ccccc4)cc3c21` [Example 434, 1-(4-Amino-8-benzyl-1H-imidazo[4,5-c]quinolin-1-yl)-2-methylpropan-2-ol] showed a melting point of 256 to 257 °C.
